Columns and labels:
Type in all cases: cell-based, human
Huh7 cells [1] = experiment: Western blotting for hippo pathway phosphorylation (Mst1/2, LATS, Yap) in Huh7 cells
Procedure: Total protein extracts were obtained by homogenizing cells in total lysis buffer and analyzed by Western blotting as described recently (Oncotarget 2015; 6:41162-41179). […] Therefore, Applicants performed in vitro studies to test whether activation of P2 purinergic receptors may affect the hippo pathway and its downstream effectors. Huh7 cells—human derived hepatocellular carcinoma cells—maintained in serum free media for 24 hours—were treated with P2 purinergic receptor agonists. […] ADP treatment alone was also sufficient to induce LATs phosphorylation (2 h-1.7 fold, 4 h-1.5 fold) (FIG. 20B). […] Hippo kinases Mst1/2 and Lats1/2 work through a phosphorylation cascade to phosphorylate Yap, thereby retaining Yap in the cytoplasm. In spite of nucleotide-mediated Mst1/2 and Lats phosphorylation, ATP, ADP and ATPγS treatment was individually insufficient to induce Yap phosphorylation. […] Similarly, ATP treatment alone increased nuclear YAP protein expression (1.7 fold) (FIG. 20D).

Huh7 cells [2] = experiment: BrdU incorporation (proliferation) in Huh7 cells; details: nucleotide 100 μM
Procedure: To determine whether P2 purinergic receptor activation influences HCC cell proliferation, BrdU incorporation was assessed in HCC cells maintained in SFM for 24 hours and treated with ATP for 24 hours. ATP treatment alone was sufficient to induce proliferation in each of these cell lines (Huh7, 34%; Hep3B, 46%; SNU-387, 47% and PLC/PRF/5, 24%), identifying nucleotides as liver cancer cell mitogens (FIG. 7A).
Extracellular ATP can be hydrolyzed to ADP and adenosine by ectonucleotidases at the plasma membrane. Therefore, Applicants tested the effects of ATPγS (non-hydrolyzable analog of ATP) or ADP (break down product of ATP) (100 μM) on Huh7 cell proliferation. ATPγS treatment alone was sufficient to induce BrdU incorporation as early as 12 hours (42%); maintained at 18 h (30%) and 24 h (29%) in Huh7 cells (FIG. 8). ADP was also able to independently increase the number of BrdU positive nuclei (12 h, 30%; 18 h, 35%; 24 h, 37%) (FIG. 8). Furthermore, ATP treatment (18 h) increased cell proliferation and viability in all four cell lines, as determined by MTT assay (Huh7, 65%; Hep3B, 81%; SNU-387, 90% and PLC/PRF/5, 43%) (FIG. 7B).
(§1) Normal human primary hepatocytes isolated from healthy adults (no known history of HCC) in suspension or freshly-frozen prior to shipment (Cryoport Systems, CA) were purchased from Triangle Research Labs, NC. Fresh hepatocytes were plated on collagen-coated tissue culture plates or glass coverslips in Williams E complete media with additives (10% fetal bovine serum, 2 mM glutamine, […] insulin, 4 ng/ml glucagon, […] transferrin, 2.5 ng/ml sodium selenite, 10,000 U/ml penicillin, […] streptomycin, 50 g/ml gentamycin) for 3 h to ensure hepatocyte adherence to plates. Subsequently, hepatocytes were maintained in Williams E minimal media free from serum and growth factors for 24 h prior to treatment. Human hepatocellular carcinoma derived Huh7, and Hep3B, were cultured in Minimum Essential Medium Eagle (MEM); SNU-387 was cultured in Roswell Park Memorial Institute (RPMI) medium and PLC/PRF/5 cultured in Dulbecco's Modified Eagle's medium (DMEM). All maintenance culture media were supplemented with 10% fetal bovine serum (FBS), L-Glutamine (2 mM), penicillin (100 units/ml) and streptomycin ([…]) at 37° C. and 5% CO2. Cells were maintained in serum free media (containing 2 mM L-Glutamine, 100 units/ml penicillin and ([…])) streptomycin for 24 h prior to treatment.
Formalin-fixed and paraffin embedded liver sections from HCC patients were analyzed by immunohistochemistry with anti-P2X3 antibody (Abcam, Cambridge, Mass.). HCC cells were grown on glass coverslips; BrdU (10 μM, Roche, Indianapolis, Ind.) was added to culture media for 1 h prior to fixation (cold acetone:methanol, 1:1) and stained using anti-BrdU antibody (DAKO, Carpinteria, Calif.) and DAB Peroxidase Substrate Kit (Vector Labs, Burlingame, Calif.), according to manufacturer's instructions. Counterstaining was done with hematoxylin. BrdU positive cells were counted and expressed as a percentage of the total number of cells in ten randomly selected high-power fields (20×) per coverslips.

Huh7 cells [3] = experiment: qRT-PCR of cyclin mRNA in Huh7 cells
Procedure: Normal human primary hepatocytes isolated from healthy adults (no known history of HCC) in suspension or freshly-frozen prior to shipment (Cryoport Systems, CA) were purchased from Triangle Research Labs, NC. Fresh hepatocytes were plated on collagen-coated tissue culture plates or glass coverslips in Williams E complete media with additives (10% fetal bovine serum, 2 mM glutamine, […] insulin, 4 ng/ml glucagon, […] transferrin, 2.5 ng/ml sodium selenite, 10,000 U/ml penicillin, […] streptomycin, 50 g/ml gentamycin) for 3 h to ensure hepatocyte adherence to plates. Subsequently, hepatocytes were maintained in Williams E minimal media free from serum and growth factors for 24 h prior to treatment. Human hepatocellular carcinoma derived Huh7, and Hep3B, were cultured in Minimum Essential Medium Eagle (MEM); SNU-387 was cultured in Roswell Park Memorial Institute (RPMI) medium and PLC/PRF/5 cultured in Dulbecco's Modified Eagle's medium (DMEM). All maintenance culture media were supplemented with 10% fetal bovine serum (FBS), L-Glutamine (2 mM), penicillin (100 units/ml) and streptomycin ([…]) at 37° C. and 5% CO2. Cells were maintained in serum free media (containing 2 mM L-Glutamine, 100 units/ml penicillin and ([…])) streptomycin for 24 h prior to treatment. Total RNA was isolated from human livers or cells using Trizol Reagent according to manufacturer's instructions (Invitrogen, NY). Complementary DNA (cDNA) synthesis was performed by reverse transcription of total RNA (2 μg) with high capacity cDNA reverse transcription kit (Applied Biosystems, Foster city, CA). The cDNA product was amplified by qRT-PCR in Step One Plus Real-Time PCR system using SYBR Green PCR Master Mix (Applied Biosystems, Grand Island, N.Y.). Quantitative expression values were determined using the […] as specified by manufacturers using GAPDH as a control.

Huh7 cells [4] = experiment: qRT-PCR of YAP target genes in Huh7 cells
Description: Total RNA was isolated from human livers or cells and was amplified by qRT-PCR as described recently (Oncotarget 2015; 6:41162-41179). Next, Applicants tested whether extracellular nucleotide treatment may have an effect on YAP target genes important in hepatocellular carcinoma. […] Moreover, P2X3 antagonist (AF-353) pretreatment attenuated ATP mediated induction of survivin (FIG. 20G).

Huh7 cells [5] = experiment: Western blotting of cyclin and CDK proteins in Huh7 cells
Procedure: as §1
Total protein extracts were obtained by homogenizing cells in total lysis buffer (50 mM Tris-HCl, pH 7.5, 0.5 M NaCl, 2 mM EGTA, 2 mM EDTA, 1.0% Triton X-100, 0.25% Deoxycholate, 1 m/ml pepstatin, 1.0 m/ml leupeptin, 1.0 m/ml aprotinin, 1.0 mM phenylmethylsulfonyl fluoride, 1.0 mM Dithiothreitol, 2.0 mM activated Na3VO4, and 2.0 mM NaF) and centrifuging at 14,000 rpm for 10 min (4° C.). Equal amounts of total proteins as determined by BCA protein Assay (Pierce, Rockford, Ill.) were analyzed by Western blotting. Blots were probed with antibody specific for a-tubulin or GAPDH to ensure equal loading of proteins in each lane.

Structure (SMILES): O=c1ccn([C@@H]2O[C@H](COP(=O)(O)OP(=O)(O)OP(=O)(O)O)[C@@H](O)[C@H]2O)c(=O)[nH]1 [UTP]
- Mst1/2 phosphorylation (Huh7 cells [1]; Huh7, serum free 24 hours, as early as 5 minutes, sustained at 4 hours): significantly induced

Structure (SMILES): Nc1ncnc2c1ncn2[C@@H]1O[C@H](COP(=O)(O)OP(=O)(O)O)[C@@H](O)[C@H]1O [ADP]
- BrdU incorporation / BrdU positive nuclei (Huh7 cells [2]; 12 h): 30%
- BrdU incorporation / BrdU positive nuclei (Huh7 cells [2]; 18 h): 35%
- BrdU incorporation / BrdU positive nuclei (Huh7 cells [2]; 24 h): 37%
- Cyclin D3 mRNA expression vs untreated cells (Huh7 cells [3]; 12 h treatment): 2.7 fold
- Cyclin D3 mRNA expression vs untreated cells (Huh7 cells [3]; 36 h treatment): 2.8 fold
- Yap phosphorylation (Huh7 cells [1]; Huh7, 12 h treatment): 0.2 fold
- induction of Yap phosphorylation (Huh7 cells [1]; Huh7, 12 h treatment): insufficient
- AREG gene expression (Huh7 cells [4]; 24 h treatment): 2.6 fold
- CTGF gene expression (Huh7 cells [4]; 24 h treatment): 2.5 fold
- Sox9 gene expression (Huh7 cells [4]; 24 h treatment): 1.4 fold
- cyclin E gene expression (Huh7 cells [4]; 24 h treatment): 2.4 fold
- survivin gene expression (Huh7 cells [4]; 24 h treatment): 1.4 fold

Structure (SMILES): Cc1nc(N=Nc2ccc(S(=O)(=O)O)cc2S(=O)(=O)O)c(COP(=O)(O)O)c(C=O)c1O [PPADS]
- effect on ATPγS-induced AREG and CTGF expression (Huh7 cells [4]; ATPγS ± PPADS, 24 h): completely attenuated

Structure (SMILES): O=C(O)c1cc(C(=O)O)c(C(=O)N(Cc2cccc(Oc3ccccc3)c2)[C@H]2CCCc3ccccc32)cc1C(=O)O [A317491]
- effect on ATP induced cyclin D3 expression (Huh7 cells [5]; A317491 30 μM pre-treatment, ATP 24 h): attenuated

Structure (SMILES): CSc1nc(N)c2ncn([C@@H]3O[C@H](COP(=O)(O)OP(=O)(O)OP(=O)(O)O)[C@@H](O)[C@H]3O)c2n1 [2-MeSATP]
- cyclin D3 expression (Huh7 cells [5]; 2MeSATP 50 μM alone, 24 h): 1.9 fold

Structure (SMILES): Cc1ccc(C(=O)Nc2ccc(S(=O)(=O)O)c3cc(S(=O)(=O)O)cc(S(=O)(=O)O)c23)cc1NC(=O)c1cccc(NC(=O)Nc2cccc(C(=O)Nc3cc(C(=O)Nc4ccc(S(=O)(=O)O)c5cc(S(=O)(=O)O)cc(S(=O)(=O)O)c45)ccc3C)c2)c1 [Suramin]
- effect on nucleotide induction of cyclin D3 mRNA (Huh7 cells [3]; Suramin pre-treatment (30 minutes) before 24 hours nucleotide treatment): dose dependent attenuation
- effect on baseline cyclin D3 expression (Huh7 cells [3]; Suramin treatment alone): reduced

Source: patent US20180271863A1, “TARGETING P2 PURINERGIC RECEPTORS TO TREAT HEPATOCELLULAR CARCINOMA (HCC)” (Baylor College of Medicine, priority 2015, published 2018)
